Experimental data from US11993576B2, “N-benzyl-N-arylsulfonamide derivative and preparation and use thereof” (Hangzhou Yirui Pharmaceutical Technology Co., Ltd, priority 2019, dated 2024).

Each compound was assayed against human Kv1.3 (Homo sapiens, UniProt P22001) (assay: IonWorks automated patch clamp assay of inhibitory activity against Kv1.3). Details: automated patch clamp method; CHO-K1 cells stably expressing human Kv1.3.
Format: cell-based
Experimental: I. IonWorks Automated Patch Clamp Assay of Inhibitory Activity Against Kv1.3
The principle and method for Kv1.3 IonWorks assay can be found in Schroeder et al. [Schroeder et al. J Biomol Screen 2003, 8(1):50-64]
Inhibitory activity of the compounds against Kv1.3 was assessed using a CHO-K1 recombinant cell line stably expressing human Kv1.3 (Charles River, Calif.). The cells were cultured in an F-12K culture medium containing 5% calf serum (Invitrogen, Carlsbad. Calif.) in an incubator at 37° C. and under air humidity with 6% CO2. Prior to be fed in the IonWorks system, the adherent cells were treated with Versene at 37° C. for 6-7 min. After gently beating the culture flask, the cells were re-suspended in a PBS phosphate buffer, and then were centrifuged at 50×g for 4 min. After a short grinding, the cells were eventually re-suspended in an external recording solution at a density of approximately 1×10^6/mL.
The compounds were dissolved in DMSO to formulate a final assay concentration of 300× on the master plate. The final gradient assay concentrations were […], 0.096, 0.048, 0.24, 1.2, 6 and 30 μM. All 300× stock solutions of each compound in DMSO were transferred to a 384-well plate with 2 μl per well. The plates were sealed and stored at −80° C. until the day of assay.
On the day of assay, the plates were each thawed at room temperature. After centrifugation, 198 μl of the external recording solution (with the components of: 130 mM Na-Gluconate, 20 mM NaCl, 4 mM KCl, 1 mM MgCl2, 1.8 mM CaCl2, 5 mM Glucose and 10 mM HEPES, pH7.3) was added and mixed thoroughly. This step provided a 1:100 dilution for the compounds. After addition of cells to IonWorks, a further 1:3 dilution was carried out, resulting in a total dilution of 1:300. At least 8 wells were reserved as blank control on each of the plates, i.e., containing only 0.3% DMSO. In addition, at least 8 wells were reserved as positive control to detect the specificity to cell signals. Fluoxetine, a compound as the positive control, was assayed at its maximum blocking concentration (100 μm) and secondary maximum blocking concentration (10 μm). In addition, an internal recording solution used in the assay (with the components of: 100 mM K-gluconate, 40 mM KCl, 1 mM MgCl2, 1 mM EGTA and 10 mM HEPES, pH7.3) contained Amphotericin B at a final concentration of 200 μg/mL to gain current channels inside the cells. The osmotic pressure of the solution was adjusted with sucrose.
Experimental procedures were carried out following the protocols as set by IonWorks Quattro system (Molecular Devices, San Jose, CA). The current of human Kv1.3 was elicited to 0 millivolt (mV) for four times by a pulse lasting 1 second. A potential of −80 mV was maintained between pulses, for 5 seconds. First, a early voltage application program was started in the IonWorks Quattro system, and then the compounds were added and incubated for 600 seconds. Next, a late voltage application program was started until completion of all assays.
The maximum peak outward currents both before and after addition of the compounds as well as the average tail current elicited when the fourth pulse rose to 0 mV were measured. The inhibitory activity of the compounds against Kv1.3 can be calculated by dividing the measured current amplitude after addition of the compounds by the measured current amplitude before addition of the compounds.
All data was calibrated by a data filtration program of the IonWorks Quattro system. The filtration standard was that: seal quality >30 MΩ, decrease of seal resistance <50% and current amplitude >200 pA.

human Kv1.3, sequence (P22001 whole entry): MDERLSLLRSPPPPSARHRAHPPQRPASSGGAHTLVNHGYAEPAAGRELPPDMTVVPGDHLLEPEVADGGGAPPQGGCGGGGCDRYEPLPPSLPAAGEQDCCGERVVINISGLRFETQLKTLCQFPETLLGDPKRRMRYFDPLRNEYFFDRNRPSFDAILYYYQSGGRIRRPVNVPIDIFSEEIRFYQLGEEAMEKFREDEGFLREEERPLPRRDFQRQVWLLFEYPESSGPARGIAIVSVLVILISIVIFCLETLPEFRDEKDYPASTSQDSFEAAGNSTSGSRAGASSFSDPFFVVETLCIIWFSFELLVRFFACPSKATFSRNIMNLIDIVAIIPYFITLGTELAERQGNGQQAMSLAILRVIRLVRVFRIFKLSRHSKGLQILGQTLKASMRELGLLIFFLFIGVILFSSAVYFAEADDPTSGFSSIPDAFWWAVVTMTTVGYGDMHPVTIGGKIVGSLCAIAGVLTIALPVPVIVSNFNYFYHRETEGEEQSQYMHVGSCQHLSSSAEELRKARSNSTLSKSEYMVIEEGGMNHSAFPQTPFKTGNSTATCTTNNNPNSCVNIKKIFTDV

Structure (SMILES)	IC50 [nM]
CCOC(=O)N1CCN(c2ccc(N(Cc3ccccc3)S(=O)(=O)c3ccccc3)cc2C#N)CC1 [Compound 1, ethyl 4-(4-(N-benzylbenzenesulfonamido)-2-cyanophenyl)piperazin-1-formate]	265
N#Cc1cc(N(Cc2ccc(F)cc2)S(=O)(=O)c2ccccc2)ccc1N1CCC(O)CC1 [Compound 20, N-(3-cyano-4-(4-hydroxypiperidin-1-yl)phenyl)-N-(4-fluorobenzyl)benzenesulfonamide]	90
CN(C)C(=O)N1CCN(c2ccc(N(Cc3ccccc3)S(=O)(=O)c3ccccc3)cc2C#N)CC1 [Compound 11, 4-(4-(N-benzylbenzenesulfonamido)-2-cyanophenyl)-N,N-dimethylpiperazin-1-formamide]	195
CCOC(=O)N1CCN(c2ccc(N(C(=O)c3ccccc3)S(=O)(=O)c3ccccc3)cc2C#N)CC1 [Compound 4, ethyl 4-(2-cyano-4-(N-(benzenesulfonamido)benzamido)phenyl)piperazin-1-formate]	12900
CCCS(=O)(=O)N(Cc1ccccn1)c1ccc(N2CCN(C(=O)OCC)CC2)c(C#N)c1 [Compound 32, Ethyl 4-(2-cyano-4-(N-(pyridin-2-ylmethyl)propanesulfonamido)phenyl) piperazin-1-formate]	165
CCCS(=O)(=O)N(Cc1ccc(F)cc1)c1ccc(NC2CCNCC2)c(C#N)c1 [Compound 52, N-(3-cyano-4-(piperidin-4-ylamino)phenyl)-N-(4-fluorobenzyl) propanesulfonamide]	139
CCCS(=O)(=O)N(Cc1ccco1)c1ccc(N2CCN(C(=O)OCC)CC2)c(C#N)c1 [Compound 33, Ethyl 4-(2-cyano-4-(N-(furan-2-ylmethyl)propanesulfonamido)phenyl) piperazin-1-formate]	839

The remaining compounds from weak to strong by IC50, led by results:

IC50 [nM]	Structure (SMILES)
441	CC(=O)N1CCC(Oc2ccc(N(Cc3ccccc3)S(=O)(=O)c3ccccc3)cc2C#N)CC1 [Compound 59, N-(4-((1-acetylpiperidin-4-yl)oxy)-3-cyanophenyl)-N-benzylbenzenesulfonamide]
332	N#Cc1cc(N(Cc2ccccc2)S(=O)(=O)c2ccccc2)ccc1OC1CCN(C=O)CC1 [Compound 60, N-(4-((1-formylpiperidin-4-yl)oxy)-3-cyanophenyl)-N-benzylbenzenesulfonamide]
312	CC(=O)OC1CCN(c2ccc(N(Cc3ccccc3)S(=O)(=O)c3ccccc3)cc2C#N)CC1 [Compound 7, N-benzyl-N-(3-cyano-4-(4-acetyloxypiperidin-1-yl)phenyl)benzenesulfonamide]
310	CC(=O)NC1CCN(c2ccc(N(Cc3ccccc3)S(=O)(=O)c3ccccc3)cc2C#N)C1 (stereo not drawn) [Compound 15, N-(1-(4-(N-benzylbenzenesulfonamido)-2-cyanophenyl)pyrrolidin-3-yl)acetamide]
239	CCCS(=O)(=O)N(Cc1ccc(OC)cc1)c1ccc(N2CCN(C(=O)OCC)CC2)c(C#N)c1 [Compound 27, Ethyl 4-(2-cyano-4-(N-(4-methoxybenzyl)propanesulfonamido)phenyl)piperazin-1-formate]
234	CN(C)S(=O)(=O)C1CCN(c2ccc(N(Cc3ccccc3)S(=O)(=O)c3ccccc3)cc2C#N)CC1 [Compound 12, 1-(4-(N-benzylbenzenesulfonamido)-2-cyanophenyl)-N,N-dimethylpiperidin-4-sulfonamide]
206	CN(C)C(=O)N1CCN(c2ccc(N(Cc3ccc(F)cc3)S(=O)(=O)CC(C)(C)C)cc2C#N)CC1 [Compound 40, 4-(2-cyano-4-((N-(4-fluorobenzyl)-2,2-dimethylpropyl)sulfonamido)phenyl)-N,N-dimethylpiperazin-1-formamide]
201	CCCS(=O)(=O)N(Cc1cncn1C)c1ccc(N2CCN(C(=O)OCC)CC2)c(C#N)c1 [Compound 35, Ethyl 4-(2-cyano-4-(N-((1-methyl-1H-imidazol-5-yl)methyl)propanesulfonamido)phenyl)piperazin-1-formate]
